In US9708639B2, “Method for quantifying amino acids with pyrophosphate” (TOYAMA PREFECTURE, priority 2012, dated 2017):

Key:
Experiment in all cases: Qualitative test of AARS substrate specificity (molybdenum blue method)
Type in all cases: biochemical, Thermotoga maritima MSB8 strain
Set-up in all cases: key: +: Activity was detected; −: Activity was not detected
[1] = molecular target: T1, Thermotoga-derived CysRS (Thermotoga maritima, UniProt Q9WZH8); settings: Tyr 1 mM, other amino acids 5 mM; hydroxylamine 1000 mM; CysRS 0.3 mg/ml (8 mU/ml); 30° C.
T1 construct: The amplification products were each inserted into pET-28a to obtain plasmids for expression of respective AARSs; His tag (C); made in house; host or cells: Escherichia coli BL21 (DE3)
T1 sequence (Q9WZH8 1-460): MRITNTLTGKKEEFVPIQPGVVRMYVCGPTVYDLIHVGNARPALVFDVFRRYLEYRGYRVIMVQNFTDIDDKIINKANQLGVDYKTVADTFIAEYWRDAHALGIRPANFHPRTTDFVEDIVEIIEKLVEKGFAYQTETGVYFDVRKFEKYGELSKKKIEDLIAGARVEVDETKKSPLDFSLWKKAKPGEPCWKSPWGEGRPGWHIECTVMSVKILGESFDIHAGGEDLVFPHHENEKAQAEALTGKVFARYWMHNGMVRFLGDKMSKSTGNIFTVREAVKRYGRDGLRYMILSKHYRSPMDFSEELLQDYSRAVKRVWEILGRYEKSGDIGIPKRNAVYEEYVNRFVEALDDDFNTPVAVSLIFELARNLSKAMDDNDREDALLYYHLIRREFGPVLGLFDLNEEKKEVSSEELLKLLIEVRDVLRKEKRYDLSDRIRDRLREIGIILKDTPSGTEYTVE
Experimental: (§1) A test sample containing an amino acid as the measurement subject and a reaction mixture for quantifying amino acid having the following composition were mixed. The mixture was left standing at 30° C. to allow the AARS reaction to advance. The mixture in a volume of 33 μl, 66 μl of water, and 1 μl of a 300 U/ml yeast pyrophosphatase solution were mixed, and left standing at room temperature for 20 minutes to allow the pyrophosphatase reaction to advance. Then, the reaction mixture was mixed with 100 μl of a color development solution A and 30 μl of a color developing solution B having the following compositions, then the mixture was left standing at room temperature for 5 minutes, and the absorbance was measured at 700 nm or 900 nm with a microplate reader.
(§2) Reaction mixture for quantifying amino acid: 20 mM Tris-HCl (pH 7.0), 5 mM MgCl2, 2 mM ATP, and AARS (concentrations are final concentrations obtained after mixing with test sample)
(§3) Color developing solution A: A solution obtained by mixing water and concentrated sulfuric acid at a ratio of 3:1 and dissolving (NH4)6Mo7O24.4H2O in the mixture at a concentration of 0.066 g/ml
(§4) Color developing solution B: A solution obtained by mixing water and concentrated sulfuric acid at a ratio of 10000:7 and dissolving FeSO4.7H2O in the mixture at a concentration of 145 mg/ml
(§5) Presence or absence of pyrophosphate generation was verified for the Thermotoga-derived CysRS, HisRS, LysRS, ProRS, SerRS, TrpRS, and TyrRS by using the AARS activity measurement method described in 9. and standard solutions of the various amino acids as test samples. AARSs were added to the reaction mixture at final concentrations of 0.3 (8 mU/ml), 0.1, 0.2 (3 mU/ml), 0.2, 0.1 (1 mU/ml), 0.1, 0.2 (20 mU/ml) mg/ml, respectively. The reaction mixtures were prepared so that the final concentration of Tyr was 1 mM, and the final concentrations of the other amino acids were 5 mM. As for the hydroxylamine concentration, it was added at a final concentration of 1000 mM for all the cases. Further, presence or absence of pyrophosphate production was also verified for the Thermus-derived MetRS and TyrRS by using the AARS activity measurement method described in 10. and standard solutions of the various amino acids as test samples. The reaction mixtures were prepared so that the final concentrations of the amino acids were 200 μM. Hydroxylamine was added at a final concentration of 400 mM.
(§6) Detection or no detection of the activity in the reaction mixtures containing a combination of each AARS and amino acid are shown in Table 2. The symbol + indicates detection of the activity, and − indicates no detection of the activity.

[2] = molecular target: T2, Thermotoga-derived HisRS (Thermotoga maritima, UniProt Q9X0H5); settings: Tyr 1 mM, other amino acids 5 mM; hydroxylamine 1000 mM; HisRS 0.1 mg/ml; 30° C.
T2 construct: His tag (C); made in house; host or cells: Escherichia coli BL21 (DE3)
T2 sequence (Q9X0H5 1-420): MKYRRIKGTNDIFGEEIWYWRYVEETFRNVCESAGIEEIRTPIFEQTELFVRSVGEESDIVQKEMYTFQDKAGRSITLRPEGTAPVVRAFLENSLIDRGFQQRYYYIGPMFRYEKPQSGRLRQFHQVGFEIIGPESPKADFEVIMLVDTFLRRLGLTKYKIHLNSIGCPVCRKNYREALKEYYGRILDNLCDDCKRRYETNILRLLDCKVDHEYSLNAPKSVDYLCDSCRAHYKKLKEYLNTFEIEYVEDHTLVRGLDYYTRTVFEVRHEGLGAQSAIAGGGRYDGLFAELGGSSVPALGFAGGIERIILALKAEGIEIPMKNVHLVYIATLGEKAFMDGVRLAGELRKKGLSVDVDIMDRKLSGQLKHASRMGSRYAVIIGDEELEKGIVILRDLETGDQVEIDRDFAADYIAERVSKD
Experimental: as §1, §2, §3, §4, §5, §6

[3] = molecular target: T3, Thermotoga-derived TyrRS (Thermotoga maritima, UniProt Q9WYU8); settings: Tyr 1 mM, other amino acids 5 mM; hydroxylamine 1000 mM; TyrRS 0.2 mg/ml (20 mU/ml); 30° C.
T3 construct: The amplification products were each inserted into pET-28a to obtain plasmids for expression of respective AARSs; His tag (N); made in house; host or cells: Escherichia coli BL21 (DE3)
T3 sequence (Q9WYU8 1-401): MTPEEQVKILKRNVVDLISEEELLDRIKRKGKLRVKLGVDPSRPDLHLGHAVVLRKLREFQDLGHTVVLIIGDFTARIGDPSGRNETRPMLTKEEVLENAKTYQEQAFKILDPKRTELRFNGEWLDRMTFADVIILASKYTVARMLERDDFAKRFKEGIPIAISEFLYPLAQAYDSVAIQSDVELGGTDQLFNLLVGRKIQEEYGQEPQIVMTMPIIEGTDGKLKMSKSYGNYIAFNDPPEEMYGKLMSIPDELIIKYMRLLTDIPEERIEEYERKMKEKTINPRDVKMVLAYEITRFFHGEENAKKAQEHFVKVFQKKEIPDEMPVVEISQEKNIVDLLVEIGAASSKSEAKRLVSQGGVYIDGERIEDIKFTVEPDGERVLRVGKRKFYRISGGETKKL
Experimental: as §1, §2, §3, §4, §5, §6

SMILES | Detection of the activity (pyrophosphate generation), CysRS [1] | Detection of the activity (pyrophosphate generation), HisRS [2] | Detection of the activity (pyrophosphate generation), TyrRS (Thermotoga) [3]
C[C@H](N)C(=O)O [Ala, L-alanine] | − | − | −
N=C(N)NCCC[C@H](N)C(=O)O [Arg, L-arginine] | − | − | −
NC(=O)C[C@H](N)C(=O)O [Asn, L-asparagine] | − | − | −
N[C@@H](CC(=O)O)C(=O)O [Asp, L-aspartic acid] | − | − | −
N[C@@H](CS)C(=O)O [Cys, L-cysteine] | + | − | −
NC(=O)CC[C@H](N)C(=O)O [Gln, L-glutamine] | − | − | −
N[C@@H](CCC(=O)O)C(=O)O [Glu, L-glutamic acid] | − | − | −
NCC(=O)O [Gly, glycine] | − | − | −
N[C@@H](Cc1c[nH]cn1)C(=O)O [His, L-histidine] | − | + | −
CC[C@H](C)[C@H](N)C(=O)O [Ile, L-isoleucine] | − | − | −
CC(C)C[C@H](N)C(=O)O [Leu, L-leucine] | − | − | −
NCCCC[C@H](N)C(=O)O [Lys, L-lysine] | − | − | −
CSCC[C@H](N)C(=O)O [Met, L-methionine] | − | − | −
N[C@@H](Cc1ccccc1)C(=O)O [Phe, L-phenylalanine] | − | − | −
O=C(O)[C@@H]1CCCN1 [Pro, L-proline] | − | − | −
N[C@@H](CO)C(=O)O [Ser, L-serine] | − | − | −
C[C@@H](O)[C@H](N)C(=O)O [Thr, L-threonine] | − | − | −
N[C@@H](Cc1c[nH]c2ccccc12)C(=O)O [Trp, L-tryptophan] | − | − | −
N[C@@H](Cc1ccc(O)cc1)C(=O)O [Tyr, L-tyrosine] | − | − | +
CC(C)[C@H](N)C(=O)O [Val, L-valine] | − | − | −
